# Measured values: patent US8226983B2, “Method for producing pulverized organic compound particle” (Activus Pharma Co., Ltd., priority 2007, dated 2012)
# How the values were obtained:
# [1] = Average particle diameter by BET type specific surface area analyzer; type: physicochemical; settings: for average particle diameter of the resulting particles: after pulverization; for average particle diameter of the resulting particles / average particle diameter of the starting organic compound: BET method; for average particle diameter of the starting organic compound: before pulverization; for Ave. Diameter after pulverization (nm): as Example 3
# Excerpt: The average particle diameter of the particles can be measured by conventionally used particle size measurement techniques such as a microscopic method, a screening method, a Coulter counter method, a sedimentation method, an air permeation method, and a gas adsorption method, but the average particle diameter according to the present invention means the average particle diameter measured according to a gas adsorption method. The method is based on the principle that when molecules or ions having a known size are adsorbed to the surface of the particles, the particles adsorb the molecules or ion according to the specific surface area. Thus, the method is a method of determining the specific surface area using an adsorption isotherm equation or an isotherm, and calculating the average particle diameter, and the method is excellent as a method for measuring the average particle diameter of finely pulverized particles. Next, the present invention will be described in more detail by way of Examples, but the present invention is not intended to be limited to the following Examples. The measurement of the average particle size was all carried out using a BET type specific surface area analyzer (Macsorb type MH-1201, manufactured by Mountech Co., Ltd.).
# [2] = Crystallinity by X-ray diffraction; type: physicochemical; settings: D8 Discover X-ray diffraction apparatus
# Excerpt: Each crystallinity of the quinolinone derivative before being finely pulverized, the quinolinone derivative obtained in Example 8 and the quinolinone derivative obtained in Comparative Example 8, was examined using an X-ray diffraction measurement apparatus (D8 Discover, manufactured by Bruker AXS, Inc.
SMILES,average particle diameter of the resulting particles [1],average particle diameter of the starting organic compound [1],other results
"CCC(=O)O[C@]1(C(=O)SCF)[C@H](C)C[C@H]2[C@@H]3C[C@H](F)C4=CC(=O)C=C[C@]4(C)[C@@]3(F)[C@@H](O)C[C@@]21C [Example 18, fluticasone propionate]",108 nm,–,–
"CC1=C(/C=C/C(C)=C/C=C/C(C)=C/C=C/C=C(C)/C=C/C=C(C)/C=C/C2=C(C)CCCC2(C)C)C(C)(C)CCC1 [Comparative Example 3, β-carotene]",570 nm,–,–
"CCC(=O)O[C@]1(C(=O)SCF)[C@H](C)C[C@H]2[C@@H]3C[C@H](F)C4=CC(=O)C=C[C@]4(C)[C@@]3(F)[C@@H](O)C[C@@]21C [Comparative Example 10, fluticasone propionate]",438 nm,–,–
"Clc1ccc(COC(Cn2ccnc2)c2ccc(Cl)cc2Cl)c(Cl)c1 (stereo not drawn) [Comparative Example 8, miconazole]",651 nm,–,crystallinity (X-ray diffraction) [2]: amorphous
"CCC(=O)O[C@]1(C(=O)SCF)[C@H](C)C[C@H]2[C@@H]3C[C@H](F)C4=CC(=O)C=C[C@]4(C)[C@@]3(F)[C@@H](O)C[C@@]21C [Example 19, fluticasone propionate]",103 nm,–,–
"CCCCCCCCOc1c(O)c2ccc(NC(=O)C=Cc3cc(OC)c(O)c(OC)c3)cc2n(C)c1=O [Comparative Example 7, 7-(3,5-dimethoxy-4-hydroxycinnamoylamino)-3-octyloxy-4-hydroxy-1-methyl-2(1H)-quinolinone]",128 nm,–,–
"CC(C)Cc1ccc(C(C)C(=O)O)cc1 (stereo not drawn) [Comparative Example 14, ibuprofen]","1,900 nm",–,–
"COc1ccc2c(c1)c(CC(=O)O)c(C)n2C(=O)c1ccc(Cl)cc1 [Comparative Example 1, indomethacin]","1,060 nm",–,–
"CCC(=O)O[C@]1(C(=O)SCF)[C@H](C)C[C@H]2[C@@H]3C[C@H](F)C4=CC(=O)C=C[C@]4(C)[C@@]3(F)[C@@H](O)C[C@@]21C [Example 17, fluticasone propionate]",114 nm,–,–
"COc1cc(C(=O)NS(=O)(=O)c2ccccc2C)ccc1Cc1cn(C)c2ccc(NC(=O)OC3CCCC3)cc12 [Comparative Example 13, zafirlukast]",558 nm,–,–
"CCC(=O)OCC(=O)[C@@]1(OC(=O)CC)[C@@H](C)C[C@H]2[C@@H]3CCC4=CC(=O)C=C[C@]4(C)[C@@]3(Cl)[C@@H](O)C[C@@]21C [Comparative Example 5, beclometasone dipropionate]",730 nm,–,–
"CCCCCCCCOc1c(O)c2ccc(NC(=O)C=Cc3cc(OC)c(O)c(OC)c3)cc2n(C)c1=O [Example 8, 7-(3,5-dimethoxy-4-hydroxycinnamoylamino)-3-octyloxy-4-hydroxy-1-methyl-2(1H)-quinolinone]",–,–,crystallinity (X-ray diffraction) [2]: crystalline structures
"CCCCCCCCOc1c(O)c2ccc(NC(=O)C=Cc3cc(OC)c(O)c(OC)c3)cc2n(C)c1=O [Comparative Example 6, 7-(3,5-dimethoxy-4-hydroxycinnamoylamino)-3-octyloxy-4-hydroxy-1-methyl-2(1H)-quinolinone]",620 nm,–,–
"CCC(=O)O[C@]1(C(=O)SCF)[C@H](C)C[C@H]2[C@@H]3C[C@H](F)C4=CC(=O)C=C[C@]4(C)[C@@]3(F)[C@@H](O)C[C@@]21C [Example 20, fluticasone propionate]",94 nm,–,–
"CCC(=O)O[C@]1(C(=O)SCF)[C@H](C)C[C@H]2[C@@H]3C[C@H](F)C4=CC(=O)C=C[C@]4(C)[C@@]3(F)[C@@H](O)C[C@@]21C [Example 21, fluticasone propionate]",92 nm,–,–

# Further lines, with some results ahead:
average particle diameter of the resulting particles [1],average particle diameter of the starting organic compound [1],SMILES,other results
109 nm,–,"CCC(=O)O[C@]1(C(=O)SCF)[C@H](C)C[C@H]2[C@@H]3C[C@H](F)C4=CC(=O)C=C[C@]4(C)[C@@]3(F)[C@@H](O)C[C@@]21C [Example 23, fluticasone propionate]",–
–,"3,980 nm",COc1ccc2c(c1)c(CC(=O)O)c(C)n2C(=O)c1ccc(Cl)cc1 [indomethacin],–
–,"5,347 nm",COc1cc(C(=O)NS(=O)(=O)c2ccccc2C)ccc1Cc1cn(C)c2ccc(NC(=O)OC3CCCC3)cc12 [zafirlukast],–
–,"7,850 nm",CCC(=O)O[C@]1(C(=O)SCF)[C@H](C)C[C@H]2[C@@H]3C[C@H](F)C4=CC(=O)C=C[C@]4(C)[C@@]3(F)[C@@H](O)C[C@@]21C [fluticasone propionate],–
–,"1,720 nm",CC1=C(/C=C/C(C)=C/C=C/C(C)=C/C=C/C=C(C)/C=C/C=C(C)/C=C/C2=C(C)CCCC2(C)C)C(C)(C)CCC1 [β-carotene],–
–,"1,820 nm",CCC(=O)OCC(=O)[C@@]1(OC(=O)CC)[C@@H](C)C[C@H]2[C@@H]3CCC4=CC(=O)C=C[C@]4(C)[C@@]3(Cl)[C@@H](O)C[C@@]21C [beclometasone dipropionate],–
–,"1,280 nm","CCCCCCCCOc1c(O)c2ccc(NC(=O)C=Cc3cc(OC)c(O)c(OC)c3)cc2n(C)c1=O [quinolinone derivative, 7-(3,5-dimethoxy-4-hydroxycinnamoylamino)-3-octyloxy-4-hydroxy-1-methyl-2(1H)-quinolinone]",crystallinity (X-ray diffraction) [2]: crystalline structures
–,"18,050 nm",CC(C)Cc1ccc(C(C)C(=O)O)cc1 (stereo not drawn) [ibuprofen],–
–,"1,060 nm",CC(=O)OCC(=O)[C@@]1(O)CC[C@H]2[C@@H]3CCC4=CC(=O)CC[C@]4(C)[C@H]3C(=O)C[C@@]21C [cortisone acetate],"Ave. Diameter before pulverization (nm) ([1]; cortisone acetate, Example 24): 1,060 nm; Ave. Diameter after pulverization (nm) ([1]; cortisone acetate, polyol Diethylene glycol): 480 nm; Ave. Diameter after pulverization (nm) ([1]; cortisone acetate, polyol Glycerin): 260 nm; Ave. Diameter after pulverization (nm) ([1]; cortisone acetate, polyol Polyethylene glycol): 590 nm; Ave. Diameter after pulverization (nm) ([1]; cortisone acetate, polyol Propylene glycol): 450 nm"
–,"10,900 nm",Clc1ccc(COC(Cn2ccnc2)c2ccc(Cl)cc2Cl)c(Cl)c1 (stereo not drawn) [miconazole],–
70 nm,–,"CCC(=O)O[C@]1(C(=O)SCF)[C@H](C)C[C@H]2[C@@H]3C[C@H](F)C4=CC(=O)C=C[C@]4(C)[C@@]3(F)[C@@H](O)C[C@@]21C [Example 22, fluticasone propionate]",–
